Source: patent US8937091B2 (Japan Science and Technology Agency, priority 2009, dated 2015)

Assays:
[1] = test system: SOCE (store operated calcium entry) in CHO cells; experiment: Assay of SOCE (store operated calcium entry)-inhibiting action; format: cell-based, Chinese hamster; conditions: for inhibition at 10 µM / inhibition at 30 µM / inhibition at 100 µM / SOCE level (percentage of inhibition): CHO cells, thapsigargin; for inhibition at 10 µM / inhibition at 30 µM / inhibition at 100 µM: read-out: SOCE level (percentage of inhibition)
Method in brief: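 CHO cells in calcium-free BSS received compound, then 1 μM thapsigargin 2 min later to deplete stores; after 9 min, 2 mM calcium chloride (final) added. Percent inhibition of the rise in intracellular calcium determined at various compound concentrations.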

[2] = test system: IICR (IP3 induced calcium release) in CHO cells; experiment: Assay of IICR (IP3 induced calcium release)-inhibiting action; format: cell-based, Chinese hamster; conditions: for inhibition at 10 µM / inhibition at 30 µM / inhibition at 100 µM / IICR level (percentage of inhibition): CHO cells, 10 μM ATP; for inhibition at 10 µM / inhibition at 30 µM / inhibition at 100 µM: read-out: IICR level (percentage of inhibition)
Method in brief: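 CHO cell medium replaced with calcium-containing BSS; compound added 1 min later, then 10 μM ATP after a further 2 min. Percent inhibition of the ATP-evoked rise in intracellular calcium determined at each compound concentration.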

[3] = Cricetulus griseus, CHO, test compound 10 μmol
[4] = Cricetulus griseus, CHO, test compound 30 μmol
[5] = Cricetulus griseus, CHO, test compound 100 μmol
[6] = Cricetulus griseus, CHO, Table 1

| Compound | inhibition at 10 µM [1, 3] | inhibition at 30 µM [1, 4] | inhibition at 100 µM [1, 5] | inhibition at 10 µM [2, 3] | inhibition at 30 µM [2, 4] | inhibition at 100 µM [2, 5] | IC50 [1, 6] | IC50 [2, 6] | IICR level (percentage of inhibition) ([2]; test compound 10 μmol) | IICR level (percentage of inhibition) ([2]; test compound 30 μmol) | IICR level (percentage of inhibition) ([2]; test compound 100 μmol) | SOCE level (percentage of inhibition) ([1]; test compound 10 μmol) | SOCE level (percentage of inhibition) ([1]; test compound 30 μmol) | SOCE level (percentage of inhibition) ([1]; test compound 100 μmol) |
| --- | --- | --- | --- | --- | --- | --- | --- | --- | --- | --- | --- | --- | --- | --- |
| COC(=O)C(CSSCC(NCCC(=O)c1ccc(C)s1)C(=O)OC)NCCC(=O)c1ccc(C)s1 (stereo not shown) [Example 403, N,N-bis(2-(5-methyl-2-thiophenoyl)ethyl)cystinemethylester] | 20% | 40% | 50% | 57% | 17% | 83% | – | – | – | – | – | – | – | – |
| Cc1cc(C(=O)CCN(CCO)C(C)C)c(C)s1 [Example 230, 2-(N-2-hydroxyethylisopropyl)aminoethyl-2,5-dimethyl-3-thiophenylketone] | 0% | 0% | 0% | 0% | 0% | 20% | – | – | – | – | – | – | – | – |
| Cc1ccc(C(=O)CCN(Cc2ccccc2)C(C)C)o1 [Example 136] | 0% | 0% | 20% | 50% | 60% | 80% | – | – | – | – | – | – | – | – |
| CCN(CCC(=O)c1ccc(C)o1)Cc1ccccc1 [Example 239, 2-(N-benzylethyl)aminoethyl-5-methyl-2-furylketone] | 0% | 0% | 10% | 0% | 50% | 80% | – | – | – | – | – | – | – | – |
| CC(C)(C)N(CCC(=O)c1ccco1)Cc1ccccc1 [Example 121, 2-(N-t-butylbenzyl)aminoethyl-2-furylketone] | 0% | 0% | 0% | 10% | 50% | 100% | > 100 µM | 30 µM | – | – | – | – | – | – |
| O=C(CCNc1ccccc1S)c1cccs1 [Example 128, 2-(2-mercaptophenyl)aminoethylthiophenylketone] | 0% | 0% | 20% | 0% | 30% | 10% | – | – | – | – | – | – | – | – |
| O=C(CCN(CCO)Cc1ccccc1)c1ccccn1 [Example 96] | 0% | 0% | 0% | 20% | 30% | 100% | – | – | – | – | – | – | – | – |
| CCCCN(CCO)CCC(=O)c1ccc(Oc2ccccc2)cc1 [Example 114, 2-(N-hydroxyethylbutyl)aminoethyl-4-phenoxyphenylketone] | 0% | 10% | 40% | 70% | 100% | 30% | – | – | – | – | – | – | – | – |
| Cc1ccc(C(=O)CCN(C)Cc2ccccc2)o1 [Example 241, 2-(N-benzylmethyl)aminoethyl-5-methyl-2-furylketone] | 0% | 0% | 10% | 0% | 0% | 70% | – | – | – | – | – | – | – | – |
| CC(C)N(CCO)CCC(=O)c1cccs1 [Example 194, 2-(N-isopropylhydroxyethyl)aminoethyl-2-thiophenylketone] | 0% | 0% | 10% | 0% | 0% | 0% | – | – | – | – | – | – | – | – |
| CC(C)(C)N(CCC(=O)c1ccc(Cl)cc1)Cc1ccccc1 [Example 305, 2-(N-t-butyl-N-benzyl)aminoethyl-4-chlorophenylketone] | 20% | 20% | 60% | 60% | 70% | 50% | – | – | – | – | – | – | – | – |
| CCCCN(CCO)CCC(=O)c1ccc(C)o1 [Example 255, 2-(N-2-hydroxyethylbutyl)aminoethyl-5-methyl-2-furylketone] | 0% | 0% | 0% | 0% | 30% | 50% | – | – | – | – | – | – | – | – |
| CC(CN(Cc1ccccc1)C(C)(C)C)C(=O)c1ccc(F)cc1 (stereo not shown) [Example 162, 2-(N-t-butylbenzyl)amino-1-methylethyl-4-fluorophenylketone] | 0% | 0% | 40% | 0% | 0% | 0% | – | – | – | – | – | – | – | – |
| CC(C)N(CCO)CCCC(=O)c1ccccc1 [Example 178, 3-(N-isopropylhydroxyethyl)aminopropylphenylketone] | 0% | 0% | – | – | – | – | – | – | 0% | 0% | 0% | – | – | – |
| Cc1ccc(C(=O)CCN(Cc2ccccc2)C(C)(C)C)o1 [Example 137, 2-(N-benzyl-t-butyl)aminoethyl-5-methyl-2-furylketone] | 0% | 0% | 0% | 40% | 50% | 50% | – | – | – | – | – | – | – | – |
| CC(C)(C)N(CCO)CCC(=O)c1ccccn1 [Example 244, 2-(N-t-butyl-2-hydroxyethyl)aminoethyl-2-pyridylketone] | 0% | 0% | 0% | 0% | 0% | 0% | – | – | – | – | – | – | – | – |
| O=C(CCN(CCO)Cc1ccccc1)c1ccc(Cl)s1 [Example 268, 2-(N-benzyl-2-hydroxyethyl)aminoethyl-5-chloro-2-thiophenylketone] | 10% | 0% | 10% | 0% | 0% | 70% | – | – | – | – | – | – | – | – |
| CC(=O)CCN(CCO)C(C)C [Example 197, 2-(N-hydroxyethylisopropyl)aminoethylmethylketone] | 0% | 0% | 0% | 0% | 0% | 0% | – | – | – | – | – | – | – | – |
| CN(CCO)CCC(=O)c1cccn1C [Example 167, 2-(N-methyl-2-hydroxyethyl)aminoethyl-2-(N-methylpyrrolyl)ketone] | 0% | 0% | 0% | 0% | 0% | 0% | – | – | – | – | – | – | – | – |
| CC(C)(C)N(CCC(=O)c1cc2ccccc2s1)Cc1ccccc1 [Example 285, 2-(N-t-butylbenzyl)aminoethyl-2-benzothienylketone] | – | 0% | 50% | 50% | 80% | 60% | – | – | – | – | – | – | – | – |
| O=C(CCN(c1ccccc1)c1ccccc1)c1ccc2ccccc2c1 [Example 75, 2-(N-diphenyl)aminoethyl-2-naphthylketone] | 0% | 0% | 0% | 0% | 0% | 0% | – | – | – | – | – | – | – | – |
| O=C(CCN(CCO)c1ccccc1)c1ccc(-c2ccccc2)cc1 [Example 299, 2-(N-2-hydroxyethylphenyl)aminoethyl-4-biphenylketone] | 20% | 40% | 40% | 70% | 30% | 30% | – | – | – | – | – | – | – | – |
| Cc1cc(C(=O)CCN(Cc2ccccc2)C(C)C)c(C)o1 [Example 221, 2-(N-benzylisopropyl)aminoethyl-3-(2,5-dimethylfuryl)ketone] | 0% | 0% | 0% | 0% | 0% | 0% | – | – | – | – | – | – | – | – |
| CC(C)N(CCO)CCC(=O)c1ccco1 [Example 172, 2-(N-isopropylhydroxyethyl)aminoethyl-2-furylketone] | – | – | – | 0% | – | – | – | – | – | – | – | 0% | 0% | 0% |
| CN(CCC(=O)c1ccc[nH]1)Cc1ccccc1 [Example 175, 2-(N-benzylmethyl)aminoethyl-2-pyrrolylketone] | 0% | 0% | 0% | 10% | 10% | 20% | – | – | – | – | – | – | – | – |
| CCC(=O)C(CCC(=O)c1ccc2ccccc2c1)C(=O)OC (stereo not shown) [Example 98, 3-propionyl-3-methoxycarbonylpropyl-2-naphthylketone] | 0% | 10% | 60% | 0% | 0% | 0% | – | – | – | – | – | – | – | – |
| CN(CCO)CCC(=O)c1cccnc1 [Example 259, 2-(N-2-hydroxyethylmethyl)aminoethyl-3-pyridylketone] | 0% | 0% | 0% | 0% | 0% | 20% | – | – | – | – | – | – | – | – |
